Measurements taken from paper PMC5126721 (ACS Central Science, 2016).
pKd: −log10 of the molar value.

Target: lysozyme (Gallus gallus, UniProt P00698)
Assay: TIMES
Format: binding

Sequence of lysozyme (P00698 19-147): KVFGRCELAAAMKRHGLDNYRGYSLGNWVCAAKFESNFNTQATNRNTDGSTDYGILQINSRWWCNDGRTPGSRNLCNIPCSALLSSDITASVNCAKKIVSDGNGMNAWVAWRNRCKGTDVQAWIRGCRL

- pKd: 4.40
SMILES: CC(=O)N[C@H]1[C@H](O[C@H]2[C@H](O)[C@@H](NC(C)=O)C(O)O[C@@H]2CO)O[C@H](CO)[C@@H](O[C@@H]2O[C@H](CO)[C@@H](O)[C@H](O)[C@H]2NC(C)=O)[C@@H]1O (stereo partly shown) [NAG3, N,N′,N″-triacetylchitotriose]
